Source: patent US7115640B2, “Heterocyclic modulators of nuclear receptors” (X-Ceptor Therapeutics, Inc., priority 2001, dated 2006)
Read-outs that look alike come from different tables or passages of the source.

What was measured:
[1] = biological target: T1, FXR (CMX-hFXR with CMX-RXRα in CV-1 cells) (Homo sapiens, UniProt Q96RI1); assay: FXR/ECREx7 co-transfection assay (luciferase reporter); format: cell-based; conditions: for EC50: FXR agonism
T1 construct: expressed in transfected cells; host or cells: CV-1 African Green Monkey Kidney cells
T1 sequence (Q96RI1 1-472 isoform Q96RI1-2): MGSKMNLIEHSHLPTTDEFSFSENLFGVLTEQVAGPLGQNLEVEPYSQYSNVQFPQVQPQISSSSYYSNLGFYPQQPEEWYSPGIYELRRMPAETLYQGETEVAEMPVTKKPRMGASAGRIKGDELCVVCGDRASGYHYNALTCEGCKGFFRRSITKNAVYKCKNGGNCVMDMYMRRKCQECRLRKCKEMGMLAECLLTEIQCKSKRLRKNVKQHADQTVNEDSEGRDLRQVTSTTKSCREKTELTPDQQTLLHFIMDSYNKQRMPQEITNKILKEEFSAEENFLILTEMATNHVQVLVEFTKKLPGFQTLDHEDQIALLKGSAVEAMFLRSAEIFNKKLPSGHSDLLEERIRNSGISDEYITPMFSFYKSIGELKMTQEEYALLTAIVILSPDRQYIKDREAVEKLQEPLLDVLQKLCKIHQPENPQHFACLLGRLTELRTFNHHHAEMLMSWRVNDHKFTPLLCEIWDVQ
T1 sequence (P19793 1-462 partner): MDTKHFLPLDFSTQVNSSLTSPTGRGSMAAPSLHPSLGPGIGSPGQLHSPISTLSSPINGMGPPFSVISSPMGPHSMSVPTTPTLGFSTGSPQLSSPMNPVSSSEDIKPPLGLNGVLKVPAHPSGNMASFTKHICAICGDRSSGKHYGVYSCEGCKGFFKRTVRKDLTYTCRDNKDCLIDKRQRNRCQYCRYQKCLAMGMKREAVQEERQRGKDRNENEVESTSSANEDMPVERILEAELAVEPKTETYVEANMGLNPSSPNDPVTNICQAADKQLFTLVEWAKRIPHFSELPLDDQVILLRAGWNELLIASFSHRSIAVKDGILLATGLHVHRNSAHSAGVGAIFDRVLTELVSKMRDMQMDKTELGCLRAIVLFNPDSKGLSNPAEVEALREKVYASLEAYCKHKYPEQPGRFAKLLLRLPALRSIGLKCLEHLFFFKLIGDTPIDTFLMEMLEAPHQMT
Procedure: The basic co-transfection protocol for measuring FXR activity is as follows. CV-1 African Green Monkey Kidney cells are plated 24 hours before transfection to achieve approximately 70–80 percent confluency. Cells are transfected with CMX-hFXR, CMX-RXRα, Luc12 reporter (ECREx7-Tk-Luciferase), and a CMX-β-Galactosidase expression vector. The transfection reagent used is DOTAP. Cells are incubated with the DOTAP/DNA mixture for 5 hours after which the cells are harvested and plated onto either 96 well or 384 well plates containing the appropriate concentration of test compound. The assay is allowed to continue for an additional 18–20 hours, after which the cells are lysed, and the luciferase activity is measured on a standard plate reader.
(§1) Both the FXR/ECREx7 co-transfection assay (Example 54) and the TR-FRET assay (Example 53) can be used to establish the EC50/IC50 values for potency and percent activity or inhibition for efficacy. Efficacy defines the activity of a compound relative to a high control (chenodeoxycholic acid, CDCA) or a low control (DMSO/vehicle). The dose response curves are generated from an 8 point curve with concentrations differing by ½ LOG units. Each point represents the average of 4 wells of data from a 384 well plate. The curve for the data is generated by using the equation: Y=Bottom+(Top−Bottom)/(1+10^((LogEC50−X)*HillSlope))
(§2) The EC50/IC50 is therefore defined as the concentration at which an agonist or antagonist elicits a response that is half way between the Top (maximum) and Bottom (baseline) values. The EC50/IC50 values represented are the averages of at least 3 independent experiments. The determination of the relative efficacy or % control for an agonist is by comparison to the maximum response achieved by chenodeoxycholic acid that is measured individually in each dose response experiment.
For the antagonist assay, 40 μM CDCA is added to each well of a 384 well plate to elicit a response. The % inhibition for each antagonist is therefore a measurement of the inhibition of the activity of 40 μM CDCA. In this example 100% inhibition would indicate that the activity of 40 μM CDCA has been reduced to baseline levels, defined as the activity of the assay in the presence of DMSO only.

GST-FXR-LBD = biological target: T2, GST-FXR-LBD (Homo sapiens, UniProt Q96RI1); assay: Time resolved fluorescence resonance energy transfer (TR-FRET) coactivator recruitment assay; format: biochemical
T2 sequence (Q96RI1 244-472 isoform Q96RI1-2): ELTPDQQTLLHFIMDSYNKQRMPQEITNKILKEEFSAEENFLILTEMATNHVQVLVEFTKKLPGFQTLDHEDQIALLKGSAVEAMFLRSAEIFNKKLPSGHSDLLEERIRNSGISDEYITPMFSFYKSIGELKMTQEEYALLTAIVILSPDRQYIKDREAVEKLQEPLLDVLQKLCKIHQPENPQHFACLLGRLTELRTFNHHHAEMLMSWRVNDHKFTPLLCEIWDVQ
Procedure: The FRET assay was performed by incubating 8 nM of GST-FXR-LBD, 8 nM of Europium-labeled anti-GST antibody (Wallac), 16 nM biotin-SRC-1 peptide [5′-biotin-[…]-CONH2], 20 nM APC-SA [allophycocyanin conjugated streptavidin] (Wallac) in FRET assay buffer (20 mM KH2PO4/K2HPO4 (pH 7.3), 150 mM NaCl, 2 mM CHAPS, 2 mM EDTA, 1 mM DTT) in the presence of the test compound(s) for 2–4 hours at room temperature. Data was collected using an LJL Analyst with readings at 615 nm and 665 nm.
as §1, with “The curve for the data is generated by using the equation: Y=Bottom+(Top−Bottom)/(1+10^((LogEC50−X)*HillSlope))” left out
as §2, with “The EC50/IC50 values represented are the averages of at least 3 independent experiments.” left out, “experiment. […]” for “experiment.”

| Emax ([1]; CV-1, relative to maximum response of chenodeoxycholic acid (CDCA), co-transfection assay, read-out: % efficacy) [%] | Structure (SMILES) | EC50 ([1]; co-transfection assay) [nM] | Emax ([1]; CV-1, read-out: % efficacy) [%] | IC50 (GST-FXR-LBD; FXR antagonism) [nM] | % inhibition (GST-FXR-LBD; inhibition of the activity of 40 μM CDCA) |
| --- | --- | --- | --- | --- | --- |
| ~150 | CCNc1ccc(C#N)cc1N=C1SC(=C2Sc3ccccc3N2C)C(=O)N1Cc1ccccc1 [Example 32, 3-[3-benzyl-5-(3-methyl-3H-benzothiazol-2-ylidene)-4-oxothiazolidin-2-ylideneamino]-4-(ethylamino)benzonitrile] | ~10 | – | – | – |
| – | CCNc1ccc(C#N)cc1N=C1SC(=C2SC(C)=C(c3ccccc3)N2C)C(=O)N1Cc1ccccc1 [Example 52, 3-(3′-benzyl-3,5-dimethyl-4′-oxo-4-phenyl-3′,4′-dihydro-3H-[2,5′]-bithiazolyliden-2′-ylideneamino)-4-(ethylamino)benzonitrile] | ~56 | ~32 | ~42 | about 48% |
